Assay results published in publication PMC12552119, “Tailored structured peptide design with a key-cutting machine approach” (Nature Machine Intelligence, 2025).
Converted amounts (≈) assume the structure as drawn. Where no end group is shown, it is not given here.

Key:
[1] = Mouse weight in the skin abscess model; design: species or system CD-1 mice; settings: in vivo
Protocol: The backs of six-week-old female CD-1 mice under anaesthesia were shaved and injured with a superficial linear skin abrasion made with a needle. An aliquot of A. baumannii ATCC 19606 (2 × 10^6 CFU ml^−1; 20 μl) previously grown in LB medium until 0.5 optical density ml^−1 (optical value at 600 nm) and then washed twice with sterile PBS (pH 7.4, 9,391 g for 3 min) was added to the scratched area. Peptides diluted in sterile water at MIC value were administered to the wound area 1 h after the infection. Two and four days after infection animals were euthanized, and the scarified skin was excised, homogenized using a bead beater (25 Hz for 20 min), tenfold serially diluted, and plated on McConkey agar plates for CFU quantification. The experiments were performed using six mice per group. Mice were housed in groups of three and maintained under a 12-h light/dark cycle at 22 °C with humidity controlled at 50%. The skin abscess infection mouse model was revised and approved by University Laboratory Animal Resources from the University of Pennsylvania (protocol 806763).
Figure S6. Cytotoxicity and anti-infective activity of designed peptides. (a) Cytotoxic effects of increasing concentrations ([…]) of each peptide on human embryonic kidney (HEK293T) cells after 24 h of treatment. Mouse weight was monitored throughout the duration of the (b) skin abscess model (4 days total) and the (e) deep thigh infection model (8 days total) to assess potential toxic effects of both the bacterial load and the designed peptides. (c) Schematic of the neutropenic thigh infection mouse model, where the designed peptides were administered intraperitoneally. Anti-infective activity against A. baumannii ATCC 19606 was evaluated 4 days after intraperitoneal peptide administration (n = 6). (d) Four days after intraperitoneal injection, NE2 at its MIC (32 µmol L-1) inhibited by […]
Statistical significance in panel d was determined using one-way ANOVA followed by Dunnett’s test; P values are shown in the graphs. […]

[2] = tested on: E. faecium ATCC 700221 - VRE; type: cell-based; settings: ATCC 700221, 24 h
Protocol: (§1) Fig. 2 Antimicrobial activity and secondary structure of computationally designed peptides. a, Structure prediction of the synthesized peptides. b, Heatmap of the antimicrobial activities of the peptides against 11 clinically relevant pathogens, including four strains resistant to conventional antibiotics. Briefly, 10^6 bacterial cells and serially diluted peptides (1-64 μmol l^−1) were incubated at 37 °C. One day after treatment, the optical density at 600 nm was measured in a microplate reader to evaluate bacterial growth in the presence of the peptides. MIC values in the heatmap are the mode of the replicates in each condition. c–f, Ternary plots showing the percentage of secondary structure for each peptide (at 50 μmol l^−1) in four different solvents: water (c), 60% TFE in water (d), 10 mmol l^−1 SDS in water (e) and 50% methanol (MeOH) in water (f). Secondary structure fractions were calculated using the BeStSel server. […] An error of one column cannot be fully excluded. / Panel b: AT1, AT2, AT3 and all blank cells print no number and are left out.
(§2) Broth microdilution assays[64] were conducted to establish the MIC for each peptide. Peptides were added to untreated polystyrene 96-well microtiter plates and serially diluted twofold in sterile water, ranging from 1 to 64 μmol l^−1. A bacterial inoculum at a concentration of 10^6 CFU ml^−1 in LB medium was then mixed in a 1:1 ratio with the peptide solution. […] Each assay was performed in three independent replicates.

[3] = tested on: E. faecalis ATCC 700802 - VRE; type: cell-based, Enterococcus faecalis; settings: ATCC 700802, 24 h
Protocol: as §1, §2

[4] = tested on: A. baumannii ATCC 19606; type: cell-based, Acinetobacter baumannii; settings: ATCC 19606, 24 h
Protocol: as §1
In this study, we used the following pathogenic bacterial strains: A. baumannii ATCC 19606, E. coli AIC221 (E. coli MG1655 phnE_2::FRT (control strain for AIC222)) and E. coli AIC222 (E. coli MG1655 pmrA53 phnE_2::FRT (polymyxin resistant; colistin-resistant strain)), Klebsiella pneumoniae ATCC 13883, Pseudomonas aeruginosa PAO1, P. aeruginosa PA14 and Staphylococcus aureus ATCC 12600. All pathogens were grown in Luria–Bertani (LB) broth and on LB agar. Pseudomonas isolation (P. aeruginosa strains) agar plates were exclusively used in the case of Pseudomonas species. In all the experiments, bacteria were inoculated from one isolated colony and grown overnight (16 h) in liquid medium at 37 °C. On the following day, inocula were diluted 1:100 in fresh media and incubated at 37 °C to mid-logarithmic phase.
as §2

[5] = tested on: A. baumannii ATCC 19606; assay: Cytoplasmic-membrane depolarization, DiSC3-5; type: cell-based, Acinetobacter baumannii; settings: DiSC3-5 fluorescence, peptides at their MIC, 60 min
Protocol: Fig. 3 Mechanism of action and cytotoxic activity of designed peptides. a, To assess whether the peptides act on bacterial membranes, all active peptides against A. baumannii American Type Culture Collection (ATCC) 19606 were subjected to outer-membrane permeabilization, and peptides active against A. baumannii ATCC 19606 and vancomycin-resistant E. faecalis ATCC 700802 were tested in cytoplasmic-membrane depolarization assays. b, The fluorescent probe NPN was used to assess membrane permeabilization induced by the tested peptides. c,d, The fluorescent probe DiSC3-5 was used to evaluate membrane depolarization caused by the designed peptides in A. baumannii ATCC 19606 (c) and vancomycin-resistant E. faecalis ATCC 700802 (d). […] All experiments were performed in three independent replicates. […]
The cytoplasmic-membrane depolarization assay was performed using the membrane-potential-sensitive dye DiSC3-5. […] Membrane depolarization was then followed by reading changes in the fluorescence (λex = 622 nm, λem = 670 nm) over time for 60 min. The relative fluorescence was calculated using the untreated control (buffer + bacteria + fluorescent dye) as baseline and the following equation was applied to reflect the percentage difference between the baselines and the sample: percentagedifference=100×(fluorescencesample−fluorescenceuntreatedcontrol)/fluorescenceuntreatedcontrol. […]

[6] = tested on: HEK293T cells; assay: Cytotoxicity, MTT assay; type: cell-based, human; settings: 24 h
Protocol: Fig. 3 Mechanism of action and cytotoxic activity of designed peptides. a, To assess whether the peptides act on bacterial membranes, all active peptides against A. baumannii American Type Culture Collection (ATCC) 19606 were subjected to outer-membrane permeabilization, and peptides active against A. baumannii ATCC 19606 and vancomycin-resistant E. faecalis ATCC 700802 were tested in cytoplasmic-membrane depolarization assays. b, The fluorescent probe NPN was used to assess membrane permeabilization induced by the tested peptides. c,d, The fluorescent probe DiSC3-5 was used to evaluate membrane depolarization caused by the designed peptides in A. baumannii ATCC 19606 (c) and vancomycin-resistant E. faecalis ATCC 700802 (d). […] All experiments were performed in three independent replicates. Panel a created with BioRender.com. Source data TEXT PRINTED IN THE PICTURE: (e) AT1: CC50 (μmol l^-1), HEK293T cells: 2,758 | (e) AT2: CC50 (μmol l^-1), HEK293T cells: 2 × 10^37 | (e) AT3: CC50 (μmol l^-1), HEK293T cells: 269 | (e) AT4: CC50 (μmol l^-1), HEK293T cells: 3,015 | (e) AT5: CC50 (μmol l^-1), HEK293T cells: 6 × 10^41 | (e) NE1: CC50 (μmol l^-1), HEK293T cells: 6 × 10^33 | (e) NE2: CC50 (μmol l^-1), HEK293T cells: 507 | (e) NE3: CC50 (μmol l^-1), HEK293T cells: 655 | (e) NE4: CC50 (μmol l^-1), HEK293T cells: 2 × 10^32 | (e) NG1: CC50 (μmol l^-1), HEK293T cells: 351 | (e) NG2: CC50 (μmol l^-1), HEK293T cells: 1 × 10^35 | (e) NG3: CC50 (μmol l^-1), HEK293T cells: 2 × 10^46 DOUBTS OF THE COPYIST ABOUT THIS PICTURE: AT2, CC50: small exponent, 37 or 57 / AT5, CC50: small exponent, 41 uncertain / NE1, CC50: small exponent, 33 or 38 / NE4, CC50: small exponent, 32 or 52 / NG2, CC50: small exponent, 35 or 36 / NG3, CC50: small exponent, 46 or 48 […]
HEK293T cells were obtained from the ATCC (CRL-3216). The cells were cultured in high-glucose DMEM supplemented with 1% penicillin and streptomycin (antibiotics) and 10% fetal bovine serum and grown at 37 °C in a humidified atmosphere containing 5% CO2.
One day before the experiment, an aliquot of 100 μl of the cells at 50,000 cells ml^−1 was seeded into each well of the cell-treated 96-well plates used in the experiment (that is, 5,000 cells per well)[45]. The attached HEK293T cells were then exposed to increasing concentrations of the peptides (4–64 μmol l^−1) for 24 h. After the incubation period, we performed the (3-(4,5-dimethylthiazol-2-yl)-2,5-diphenyltetrazolium bromide) tetrazolium reduction assay (MTT assay)[45]. […] The resulting salts were then resuspended in hydrochloric acid (0.04 mol l^−1) in anhydrous isopropanol and quantified by spectrophotometric measurements of absorbance at 570 nm. […]

[7] = tested on: 11 clinically relevant strains, including the ESKAPEE pathogens; assay: MIC against the whole strain panel; type: cell-based; settings: 11 strains, peptides 1-64 μmol l^-1
Description: We synthesized 12 sequences selected for their ease of synthesis and low aggregation potential: five from AT, four from NE and three from NG. We excluded the ND group because its peptides were challenging to synthesize and solubilize. We determined their minimum inhibitory concentrations (MICs) against 11 clinically relevant strains, including the ESKAPEE pathogens. […] Further investigation is needed to confirm this hypothesis.
Fig. 2 Antimicrobial activity and secondary structure of computationally designed peptides. a, Structure prediction of the synthesized peptides. b, Heatmap of the antimicrobial activities of the peptides against 11 clinically relevant pathogens, including four strains resistant to conventional antibiotics. Briefly, 10^6 bacterial cells and serially diluted peptides (1-64 μmol l^−1) were incubated at 37 °C. One day after treatment, the optical density at 600 nm was measured in a microplate reader to evaluate bacterial growth in the presence of the peptides. MIC values in the heatmap are the mode of the replicates in each condition. c–f, Ternary plots showing the percentage of secondary structure for each peptide (at 50 μmol l^−1) in four different solvents: water (c), 60% TFE in water (d), 10 mmol l^−1 SDS in water (e) and 50% methanol (MeOH) in water (f). Secondary structure fractions were calculated using the BeStSel server. […]

Compound | MIC [2] [µM] | MIC [3] [µM] | CC50, cytotoxic concentration leading to 50% cell lysis [6] [µM] | further results
C[C@H]1COc2c(N3CCN(C)CC3)c(F)cc3c(=O)c(C(=O)O)cn1c23 [Levofloxacin, reference compound] | – | – | – | mouse weight (day 0 = 100) [1]: 105
CC[C@H](C)[C@H](NC(=O)[C@H](CS)NC(=O)[C@H](CC(C)C)NC(=O)[C@H](Cc1c[nH]c2ccccc12)NC(=O)[C@H](C)NC(=O)[C@H](CCSC)NC(=O)[C@H](C)NC(=O)[C@H](Cc1c[nH]cn1)NC(=O)[C@@H]1CCCN1)C(=O)N[C@@H](CCCNC(=N)N)C(=O)N[C@@H](Cc1ccccc1)C(=O)N[C@@H](Cc1c[nH]cn1)C(=O)O [NE1] | 16 (≈ 23.7 µg/mL) | 8 (≈ 11.9 µg/mL) | – | MIC [4]: 32 µM (≈ 47.4 µg/mL); cytoplasmic-membrane depolarization [5]: particularly effective
FKLCFVLHFVAL [NE4] | – | 8 | – | –
HWHAILIHFHFA [AT1] | – | – | 2758 | MIC against at least one strain / activity in the panel [7]: inactive
HWHLILHFHACH [NG2] | 64 | 64 | – | –
HWHNKVLHWHIQ [AT3] | – | – | 268.9 | MIC against at least one strain / activity in the panel [7]: inactive
IWHAAVLHFAIS [AT5] | 32 | 64 | – | –
WHFHVWIHCIAF [NE3] | 32 | 16 | 655.4 | –
